Assay results: patent publication US20030032774A1, “Novel opioid peptides for the treatment of pain” (priority 1994, published 2003)
Where two headings read alike, the source gives them in different places. Square brackets hold non-standard residues; d marks the D form. Peptide text beside a SMILES is read from it. * marks the point of attachment. Phe(4-NO2) = N[C@@H](Cc1ccc([N+](=O)[O-])cc1)C(=O)O; Phe(4-N3) = [N-]=[N+]=Nc1ccc(C[C@H](N)C(=O)O)cc1; 1Nal = N[C@@H](Cc1cccc2ccccc12)C(=O)O; 2Nal = N[C@@H](Cc1ccc2ccccc2c1)C(=O)O; NMeF = CN[C@@H](Cc1ccccc1)C(=O)O; Tic = O=C(O)[C@@H]1Cc2ccccc2CN1; dNle = CCCC[C@@H](N)C(=O)O; dAbu = CC[C@@H](N)C(=O)O; Ac5c = NC1(C(=O)O)CCCC1; Aib = CC(C)(N)C(=O)O; Bn = c1ccc(C*)cc1

Assays:
[1] = tested on: PBQ induced writhing in mice; experiment: PBQ (phenylquinone)-induced writhing assay; format: in vivo, mouse; settings: mouse s.c.
Procedure: The test was performed on CD #1 male mice weighing between 18 and 22 g. Mice were weighed, marked and then injected, by the intraperitoneal route, with 0.3 ml/20 g by weight of a solution of phenylquinone at 0.02%. The contortions which appeared during a 15 minute time period following the injection were counted. The phenylquinone was injected at time intervals of 5, 20 or 60 minutes after administration of the compound (or medium, or standard) by subcutaneous route. It was injected at time intervals of 60 minutes after the administration of the compound (or medium, or standard) by oral route;
The 0.02% phenylquinone solution was prepared as follows: 20 mg of phenylquinone was dissolved in 5 ml ethanol 90% (Sigma). The dissolved phenylquinone was slowly added to 95 ml of distilled water continuously shaken and preheated (not boiled). The phenylquinone solution was, at all times protected from light and a new solution was prepared every day for the test. Each group usually contained 10 mice. If an antagonist, such as naloxone, was used, it was administered 20 minutes before the compound (or the medium, or the standard) by the intraperitoneal route.
Writhing assays were performed on CD#1 male mice weighing between […]. Assays were carried out as described in Example 3 and results are summarized below in Table 2.

μ receptor = target: T1, μ receptor (Rattus norvegicus, UniProt P33535); experiment: Radioligand binding assay, μ opioid receptor ((3H)-DAMGO, brain membranes)
T1 construct: the brains (minus the cerebellum) were removed, placed in ice-cold saline solution, and then homogenized; from tissue; host or cells: rat brain (minus cerebellum) membranes
Procedure: PBQ (phenyl-ρ-benzoquinone) induced writhing in mice is an assessment of both central and peripheral analgesia (see Sigmund, et al., Proc. Soc. Exp. Biol. Med. 95:729 (1957)). Central analgesia is determined by the inhibition of a hot-plate response in mice (see, Wolfe, et al., J. Pharmacol. Exp. Ther. 80:300 (1944)). Assays measuring opioid receptor binding affinities for μ and δ receptors as well as the GPI assay were determined through experimental protocol set out in Schiller et al. (Biophys. Res. Commun. 85:1322 (1975)). The references by Sigmund, et al., Wolfe, et al., and Schiller, et al. are each hereby incorporated by reference.
Male Sprague-Dawley rats weighing between 350-450 g were sacrificed by inhalation of CO2. The rats were decapitated and the brains (minus the cerebellum) were removed, placed in ice-cold saline solution, and then homogenized in ice-cold 50 mM Tris buffer pH 7.4 (10 ml/brain). Membranes were centrifuged at 14000 rpm for 30 min. at 4° C. The pellets were re-suspended in approximately 6 ml/brain of ice-cold Tris buffer 50 mM pH 7.4 and stored at −78° C. until ready for use. Protein quantification of the brain homogenate was conducted according to protein assay kit purchased (Bio-Rad).
(^3H)-DAMGO and (^3H)-DAGLE were used as radioligands for the μ and δ receptors, respectively. Radioligand 50 μl, membranes 100 μl, and serially diluted test compound were incubated for 1 hr at 22° C. Nonspecific binding was determined using a 500 fold excess of unlabeled ligand in the presence of tracer and membranes. Free ligand was separated from bound by filtration through Whatman GF/B paper (presoaked in polyethylenimine 1% aqueous solution) and rinsing with ice-cold 50 mM Tris pH 7.4 using a Brandel cell harvester. The filters were dried and radioactivity was counted in a 24 well microplate in the presence of 500 μl scintillant per well. Radioactivity was measured using a Wallace 1450 Microbeta counter. Ki's for the various compounds were determined from the IC50 according to the Cheng and Prusoff equation.

μ receptors = μ receptors (Cavia porcellus, UniProt P97266); experiment: Guinea Pig Ileum (GPI) assay, longitudinal muscle preparation
Procedure: The activity of the peptide compounds on μ receptors was determined using the Guinea Pig Ileum (GPI) assay (longitudinal muscle preparation) according to the procedures described in Schiller et al., Biophys. Res. Commun. 85:1322 (1975).

T1 sequence (P33535 whole entry): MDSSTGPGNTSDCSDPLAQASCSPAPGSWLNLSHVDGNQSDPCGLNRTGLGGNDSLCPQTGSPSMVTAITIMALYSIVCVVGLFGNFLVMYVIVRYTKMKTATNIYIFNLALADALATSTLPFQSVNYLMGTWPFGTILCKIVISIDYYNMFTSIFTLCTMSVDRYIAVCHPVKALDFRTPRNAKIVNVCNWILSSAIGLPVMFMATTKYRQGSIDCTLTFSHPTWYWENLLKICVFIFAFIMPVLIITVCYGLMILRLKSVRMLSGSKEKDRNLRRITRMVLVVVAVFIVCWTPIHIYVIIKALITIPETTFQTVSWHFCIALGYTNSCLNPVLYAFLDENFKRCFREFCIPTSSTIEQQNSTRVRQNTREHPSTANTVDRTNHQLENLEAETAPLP
Sequence of μ receptors (P97266 whole entry, looked up): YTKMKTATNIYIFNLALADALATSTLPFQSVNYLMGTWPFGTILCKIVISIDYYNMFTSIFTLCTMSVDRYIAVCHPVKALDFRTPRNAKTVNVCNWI

Compound | ED50(PBQ) ([1]; 20 min post administration) | Ki (μ receptor; Ki^μ, Table 1) | further results
CCCC[C@@H](NC(=O)[C@@H](N)Cc1ccc(O)cc1)C(=O)N[C@@H](Cc1ccccc1)C(=O)N[C@@H](Cc1ccc2ccccc2c1)C(N)=O [BCH2211, H-Tyr-D-Nle-Phe-2′-Nal-NH2] (H-Y[dNle]F[2Nal]-NH2) | >10 mg/kg | – | –
CCCC[C@@H](NC(=O)[C@@H](N)Cc1ccc(O)cc1)C(=O)N[C@@H](Cc1c[nH]c2ccccc12)C(=O)N[C@@H](Cc1ccc2ccccc2c1)C(N)=O [BCH2214, H-Tyr-D-Nle-Trp-2′-Nal-NH2] (H-Y[dNle]W[2Nal]-NH2) | 15 mg/kg | – | –
CCCC[C@@H](NC(=O)[C@@H](N)Cc1ccc(O)cc1)C(=O)N[C@@H](Cc1c[nH]c2ccccc12)C(=O)N[C@@H](Cc1c[nH]c2ccccc12)C(N)=O [BCH2217, H-Tyr-D-Nle-Trp-Trp-NH2] (H-Y[dNle]WW-NH2) | >5 mg/kg | – | –
C[C@@H](NC(=O)[C@@H](N)Cc1ccc(O)cc1)C(=O)N[C@@H](Cc1ccc2ccccc2c1)C(=O)N[C@@H](Cc1cccc2ccccc12)C(N)=O [BCH758, H-Tyr-D-Ala-2′-Nal-1′-Nal-NH2] (H-Y[dA][2Nal][1Nal]-NH2) | >20 mg/kg | 5.61 nM | –
∇CH2Tyr-D-Ala-Phe-Phe-NH2 [BCH2202] | >10 mg/kg | – | –
CC(C)C[C@@H](NC(=O)[C@@H](N)Cc1ccc(O)cc1)C(=O)N[C@@H](Cc1ccccc1)C(=O)N[C@@H](Cc1ccccc1)C(N)=O [BCH2465, H-Tyr-D-Leu-Phe-Phe-NH2] (H-Y[dL]FF-NH2) | >10 mg/kg | – | –
C[C@@H](NC(=O)[C@@H](N)Cc1ccc(O)cc1)C(=O)N[C@@H](Cc1c[nH]c2ccccc12)C(=O)N[C@@H](Cc1ccc2ccccc2c1)C(N)=O [BCH2213, H-Tyr-D-Ala-Trp-2′-Nal-NH2] (H-Y[dA]W[2Nal]-NH2) | >5 mg/kg | – | –
C[C@@H](NC(=O)[C@@H](N)Cc1ccc(O)cc1)C(=O)N[C@@H](Cc1c[nH]c2ccccc12)C(=O)N[C@@H](Cc1ccccc1)C(N)=O [BCH1784, H-Tyr-D-Ala-Trp-Phe-NH2] (H-Y[dA]WF-NH2) | >20 mg/kg | 3.57 nM | IC50 (μ receptors; GPI(IC50), Table 1): 20 nM
C[C@@H](NC(=O)[C@@H](N)Cc1ccc(O)cc1)C(=O)N[C@H](Cc1ccccc1)C(=O)N[C@@H](Cc1ccccc1)C(N)=O [BCH1775, H-Tyr-D-Ala-D-Phe-Phe-NH2] (H-Y[dA][dF]F-NH2) | – | – | Ki (μ receptor): 26 nM; IC50 (μ receptors): 925 nM
C[C@H](O)[C@@H](NC(=O)[C@@H](N)Cc1ccc(O)cc1)C(=O)N[C@@H](Cc1ccccc1)C(=O)N[C@@H](Cc1ccccc1)C(N)=O [BCH2811, H-Tyr-D-Thr-Phe-Phe-NH2] (H-Y[dT]FF-NH2) | 12 mg/kg | – | –
C[C@@H](NC(=O)[C@@H](N)Cc1ccc(O)cc1)C(=O)N[C@@H](Cc1ccccc1)C(=O)N[C@@H](Cc1ccc(N=[N+]=[N-])cc1)C(N)=O [BCH1778, H-Tyr-D-Ala-Phe-Phe(4-N3)—NH2] (H-Y[dA]F[Phe(4-N3)]-NH2) | – | 1.49 nM | IC50 (μ receptors; GPI(IC50), Table 1): 50 nM
C[C@@H](NC(=O)[C@@H](N)Cc1ccc(O)cc1)C(=O)N[C@@H](Cc1ccccc1)C(=O)N(C)[C@@H](Cc1ccccc1)C(N)=O [BCH1781, H-Tyr-D-Ala-Phe-Phe(NMe)-NH2] (H-Y[dA]F[NMeF]-NH2) | – | 22.6 nM | IC50 (μ receptors; GPI(IC50), Table 1): 241 nM
C[C@@H](NC(=O)[C@@H](N)Cc1ccc(O)cc1)C(=O)N[C@@H](Cc1ccccc1)C(=O)N1Cc2ccccc2C[C@H]1C(N)=O [BCH1780, H-Tyr-D-Ala-Phe-Tic-NH2] (H-Y[dA]F[Tic]-NH2) | – | 12.7 nM | –
CC(C)[C@@H](NC(=O)[C@@H](N)Cc1ccc(O)cc1)C(=O)N[C@@H](Cc1ccccc1)C(=O)N[C@@H](Cc1ccccc1)C(N)=O [BCH2464, H-Tyr-D-Val-Phe-Phe-NH2] (H-Y[dV]FF-NH2) | >10 mg/kg | – | –
CCCC[C@@H](NC(=O)[C@@H](N)Cc1ccc(O)cc1)C(=O)N[C@@H](Cc1ccccc1)C(=O)N[C@@H](Cc1ccccc1)C(N)=O [BCH755, H-Tyr-D-Nle-Phe-Phe-NH2] (H-Y[dNle]FF-NH2) | – | 0.968 nM | IC50 (μ receptors; GPI(IC50), Table 1): 15 nM; ED50(PBQ) ([1]; 5 min.): 2.5 (5 min.) mg/kg
N=C(N)NCCC[C@@H](NC(=O)[C@@H](N)Cc1ccc(O)cc1)C(=O)N[C@@H](Cc1ccccc1)C(=O)N[C@@H](CSCc1ccccc1)C(N)=O [BCH3241, H-Tyr-D-Arg-Phe-Cys(Bzl)NH2] (H-Y[dR]FC(Bn)-NH2) | – | 6.95 nM | IC50 (μ receptors; GPI(IC50), Table 1): 33 nM
C[C@@H](NC(=O)[C@@H](N)Cc1ccc(O)cc1)C(=O)N[C@@H](Cc1ccc([N+](=O)[O-])cc1)C(=O)N[C@@H](Cc1ccccc1)C(N)=O [BCH1779, H-Tyr-D-Ala-Phe(4-NO2)-Phe-NH2] (H-Y[dA][Phe(4-NO2)]F-NH2) | – | 56.8 nM | IC50 (μ receptors; GPI(IC50), Table 1): 77 nM
CC(C)(NC(=O)[C@@H](N)Cc1ccc(O)cc1)C(=O)N[C@@H](Cc1ccccc1)C(=O)N[C@@H](Cc1ccccc1)C(N)=O [BCH754, H-Tyr-Aib-Phe-Phe-NH2] (H-Y[Aib]FF-NH2) | >20 mg/kg | – | –
C[C@@H](NC(=O)[C@@H](N)Cc1ccc(O)cc1)C(=O)N[C@@H](Cc1c[nH]c2ccccc12)C(=O)N[C@@H](Cc1c[nH]c2ccccc12)C(N)=O [BCH1786, H-Tyr-D-Ala-Trp-Trp-NH2] (H-Y[dA]WW-NH2) | 10 mg/kg | 0.833 nM | –
CCCC[C@@H](NC(=O)[C@@H](N)Cc1ccc(O)cc1)C(=O)N[C@@H](Cc1c[nH]c2ccccc12)C(=O)N[C@@H](Cc1ccccc1)C(N)=O [BCH2212, H-Tyr-D-Nle-Trp-Phe-NH2] (H-Y[dNle]WF-NH2) | >10 mg/kg | – | –
C[C@@H](NC(=O)[C@@H](N)Cc1ccc(O)cc1)C(=O)N[C@@H](Cc1ccccc1)C(=O)N[C@@H](CSCc1ccccc1)C(N)=O [BCH3240, H-Tyr-D-Ala-Phe-Cys(Bzl)NH2] (H-Y[dA]FC(Bn)-NH2) | – | 5.3 nM | IC50 (μ receptors; GPI(IC50), Table 1): 9.16 nM
H-Tyr-∇Ala-Phe-Phe-NH2 [BCH1787] | 10 mg/kg | – | –
CC[C@@H](C)[C@@H](NC(=O)[C@@H](N)Cc1ccc(O)cc1)C(=O)N[C@@H](Cc1ccccc1)C(=O)N[C@@H](Cc1ccccc1)C(N)=O [BCH2473, H-Tyr-D-Ile-Phe-Phe-NH2] (H-Y[dI]FF-NH2) | >10 mg/kg | – | –
CC[C@@H](NC(=O)[C@@H](N)Cc1ccc(O)cc1)C(=O)N[C@@H](Cc1ccccc1)C(=O)N[C@@H](Cc1ccccc1)C(N)=O [BCH2577, H-Tyr-D-Abu-Phe-Phe-NH2] (H-Y[dAbu]FF-NH2) | >10 mg/kg | – | –
NC(=O)[C@H](Cc1ccccc1)NC(=O)[C@H](Cc1ccccc1)NC(=O)C1(NC(=O)[C@@H](N)Cc2ccc(O)cc2)CCCC1 [BCH2579, H-Tyr-Cle-Phe-Phe-NH2] (H-Y[Ac5c]FF-NH2) | >10 mg/kg | – | –
CCCC[C@@H](NC(=O)[C@@H](N)Cc1ccc(O)cc1)C(=O)N[C@@H](Cc1ccccc1)C(=O)N[C@@H](Cc1c[nH]c2ccccc12)C(N)=O [BCH2208, H-Tyr-D-Nle-Phe-Trp-NH2] (H-Y[dNle]FW-NH2) | >3 mg/kg | – | –
H-Tyr-Chl-Phe-Phe-NH2 [BCH2578] | >10 mg/kg | – | –
C[C@@H](NC(=O)[C@@H](N)Cc1ccc(O)cc1)C(=O)N[C@@H](Cc1cccc2ccccc12)C(=O)N[C@@H](Cc1cccc2ccccc12)C(N)=O [BCH1783, H-Tyr-D-Ala-1′-Nal-1′-Nal-NH2] (H-Y[dA][1Nal][1Nal]-NH2) | >20 mg/kg | 2.88 nM | –
